Experimental data from ChEMBL document CHEMBL1133848, “Novel synthesis and RNA-binding properties of aminoglycoside dimers conjugated via a naphthalene diimide-based intercalator” (Bioorg Med Chem Lett, 2001).
pKd: −log10 of the molar value.

Assay: Dissociation constant with dimeric 16S rRNA RNA construct B

Going from `NC[C@H]1O[C@H](O[C@H]2[C@H](O)[C@@H](O[C@H]3O[C@H](CSCCOCCSCC(O)CN4C(=O)c5ccc6c7c(ccc(c57)C4=O)C(=O)N(CC(O)CSCCOCCSC[C@H]4O[C@H](O[C@@H]5[C@@H](O)[C@H](O[C@H]7O[C@H](CN)[C@@H](O)C[C@H]7N)[C@@H](N)C[C@H]5N)[C@H](O)[C@@H](N)[C@@H]4O)C6=O)[C@@H](O)[C@H](N)[C@H]3O)[C@H](N)C[C@@H]2N)[C@H](N)C[C@@H]1O` (some centres undefined) to `NC[C@@H]1O[C@H](O[C@H]2[C@@H](O)[C@H](O[C@H]3[C@H](O)[C@@H](N)C[C@@H](N)[C@@H]3O[C@H]3O[C@H](CN)[C@@H](O)[C@H](O)[C@H]3N)O[C@@H]2CSCCOCCSCC(O)CN2C(=O)c3ccc4c5c(ccc(c35)C2=O)C(=O)N(CC(O)CSCCOCCSC[C@H]2O[C@H](O[C@@H]3[C@@H](O)[C@H](O[C@H]5O[C@H](CN)[C@@H](O)C[C@H]5N)[C@@H](N)C[C@H]3N)[C@H](O)[C@@H](N)[C@@H]2O)C4=O)[C@H](N)[C@@H](O)[C@@H]1O` (some centres undefined), the pKd rises from 5.95 to 6.82 (0.87 log units).

`CN(C)C1=CC2Oc3cc(N(C)C)ccc3C(c3ccc(C(=O)NC[C@@H]4O[C@H](O[C@H]5[C@@H](O)[C@H](O[C@@H]6[C@H](O)[C@H](N)C[C@@H](N)[C@H]6O[C@H]6O[C@@H](CO)[C@@H](O)[C@H](O)[C@@H]6N)O[C@@H]5CO)[C@H](N)[C@H](O)[C@@H]4O)cc3C(=O)O)=C2C=C1` (some centres undefined) and `NC[C@@H]1O[C@H](O[C@H]2[C@@H](O)[C@H](O[C@@H]3[C@@H](O)[C@H](N)C[C@H](N)[C@H]3O[C@H]3O[C@H](CN)[C@@H](O)[C@H](O)[C@H]3N)O[C@@H]2CO)[C@H](N)[C@@H](O)[C@@H]1O` [FRAMYCETIN] are within 0.2 log units of each other in pKd: 6.55 for the first, 6.46 for the second.

Going from `NCC1O[C@H](O[C@H]2[C@@H](O)[C@H](O[C@H]3[C@H](O)[C@@H](N)C[C@@H](N)[C@@H]3O[C@H]3O[C@H](CN)[C@@H](O)[C@H](O)[C@H]3N)O[C@@H]2CSCCOCCSSCCOCCSC[C@H]2O[C@H](O[C@@H]3[C@@H](O)[C@H](O[C@H]4O[C@H](CN)[C@@H](O)C[C@H]4N)[C@@H](N)C[C@H]3N)[C@H](O)[C@@H](N)[C@@H]2O)[C@H](N)[C@@H](O)[C@@H]1O` (some centres undefined) to `NCC1O[C@H](O[C@H]2[C@@H](O)[C@H](O[C@H]3[C@H](O)[C@@H](N)C[C@@H](N)[C@@H]3O[C@H]3O[C@H](CN)[C@@H](O)[C@H](O)[C@H]3N)O[C@@H]2CSCCOCCSSCCOCCSC[C@H]2O[C@@H](O[C@H]3[C@H](O)[C@@H](N)C[C@@H](N)[C@@H]3O[C@H]3O[C@H](CN)[C@@H](O)[C@H](O)[C@H]3N)[C@H](O)[C@@H]2O[C@@H]2OC(CN)[C@H](O)[C@@H](O)[C@@H]2N)[C@H](N)[C@@H](O)[C@@H]1O` (some centres undefined), the pKd rises from 6.54 to 7.70 (1.16 log units). The second binds more tightly here.

Compared with `NC[C@@H]1O[C@H](O[C@@H]2[C@H](O[C@@H]3OC(CSCCOCCSCC(O)CN4C(=O)c5ccc6c7c(ccc(c57)C4=O)C(=O)N(CC(O)CSCCOCCSC[C@H]4O[C@@H](O[C@H]5[C@H](O)[C@@H](N)C[C@@H](N)[C@@H]5O[C@H]5O[C@H](CN)[C@@H](O)[C@H](O)[C@H]5N)[C@H](O)[C@@H]4O[C@H]4O[C@@H](CN)[C@@H](O)[C@H](O)[C@H]4N)C6=O)[C@@H](O[C@@H]4O[C@H](CN)[C@H](O)C(O)[C@H]4N)[C@H]3O)[C@@H](O)[C@@H](N)C[C@@H]2N)[C@@H](N)[C@@H](O)[C@@H]1O` (some centres undefined), `NC[C@H]1O[C@H](O[C@H]2[C@H](O)[C@@H](O[C@H]3O[C@H](CSCCOCCSSCCOCCSC[C@H]4O[C@H](O[C@@H]5[C@@H](O)[C@H](O[C@H]6O[C@H](CN)[C@@H](O)C[C@H]6N)[C@@H](N)C[C@H]5N)[C@H](O)[C@@H](N)[C@@H]4O)[C@@H](O)[C@H](N)[C@H]3O)[C@H](N)C[C@@H]2N)[C@H](N)C[C@@H]1O` [Tobramycin-Tobramycin] is 2.26 log units lower in pKd: 8.00 for the first, 5.74 for the second.

Work on `NC[C@H]1O[C@H](O[C@H]2[C@H](O)[C@@H](O[C@H]3O[C@H](CO)[C@@H](O)[C@H](N)[C@H]3O)[C@H](N)C[C@@H]2N)[C@H](N)C[C@@H]1O` [TOBRAMYCIN] yielded a pKd of 5.77.
